According to patent US20240115527A1, “CXCR1/CXCR2 INHIBITORS FOR USE IN TREATING MYELOFIBROSIS” (Icahn School of Medicine at Mount Sinai, priority 2020, published 2024):

Key:
Type in all cases: cell-based, human
[1] = tested on: MF CD34+, CD41+ and CD33+ cells; test: Proliferation and lineage differentiation of MF mononuclear cells cultured with IL-8, flow cytometry; settings: 50 ng/ml of IL-8, 3 days of incubation, FIG. 4A
Procedure: To evaluate the effects of IL-8 on MF CD34^+ cells proliferation and lineage differentiation, MF mononuclear cells (MNC cells) were cultured with StemSpan™ Serum-Free Expansion Medium (SFEM) containing 20 ng/ml of stem cell factor (SCF), thrombopoietin (TPO), FL-3L and IL-3 with or without 50 ng/ml of IL-8. The cells were harvested after 3 days of incubation. The proportion of hematopoietic cells belonging to specific lineages were determined using flow cytometry.

MF CD34+ cells [2] = test: Colony forming assay (CFU-GM) of cultured MF CD34+ cells with IL-8
Excerpt: FIGS. 5A, 5B. 5C, 5D, and 5E illustrate that a CXCR1/CXCR2 inhibitor reverses effects of IL-8 on MF CD34^+ cell colony formation. […] CFU-GM=colony-forming unit-granulocyte-macrophage. FIGS. 5B and 5C illustrate that IL-8 increased CFU-GM colony formation by MF CD34^+ cells in a dose dependent fashion and that the effects of IL-8 were inhibited by treatment with Ladx. FIG. 5B. Normal cells. FIG. 5C. MF cells. […] Con=control. IL-8 concentrations increase from left to right. […] P values were as follows: w/o Ladx: Con vs IL-8—10 ng: 0.159332; Con vs IL-8—20 ng: 0.011976; Con vs IL-8—50 ng: 0.00262; Con vs IL-8—100 ng: 0.00042; w/ 10 μM Ladx: Con vs Ladx: 0.315782; IL-8—10 ng vs plus Ladx: 0.295851; IL-8—20 ng vs plus Ladx: 0.077726; IL-8—50 ng vs plus Ladx: 0.031355; IL-8—100 ng vs plus Ladx: 0.081595.

normal CD34+ cells = test: Hematopoietic colony formation by normal CD34+ cells with IL-8; settings: increasing concentrations of IL-8, FIG. 5B
normal donor CD34+ cells = test: Proliferation and lineage differentiation of normal donor cells cultured with IL-8, flow cytometry; settings: incubated with IL-8, FIG. 4A
spleen stromal cells = test: VEGF mRNA expression by spleen stromal cells after IL-8 silencing; settings: addition of IL-8, FIG. 3C
Excerpt: (§1) FIGS. 3A, 3B, and 3C illustrate that reduction of IL-8 blocks VEGF, which is involved in the development of splenic endothelial cells (EC)/MF HSC niches. FIGS. 3A and 3B illustrate that LCN2 increases IL-8 and CXCL1 protein and mRNA levels in spleen stromal cells. Con: left bars. LCN2: right bars. FIG. 3C illustrates that IL-8 regulates VEGF expression. si=silencing. Ab=antibody. Con=control.
(§2) Lipocalin2 (LCN2) is a cytokine produced by MF marrow myeloid cells. Levels of LCN2 are 2-3 fold greater in the circulation of MF patients as compared to PV and ET patients and even higher as compared to healthy controls. […] IL-8 and the related chemokine CXCL1 are pro-angiogenic creating a cascade of cytokines (VEGF) contributing to the development of splenic EC/MF HSC niches. […] The positive impact of IL-8 on VEGF expression was blocked by an IL-8 neutralizing antibody.

MF CD34+ cells [3] = test: Clonal assays of MF CD34+ cells; JAK2V617F allele status of picked hematopoietic colonies; settings: for number of colonies, Heter (JAK2V617F heterozygous) / number of colonies, Homo (JAK2V617F homozygous) / number of colonies, WT (JAK2 wild type) / number of colonies, Wild (JAK2 wild type): no ladarixin
Procedure: Individual hematopoietic colonies were randomly picked from clonal assays of CD34^+ cells from 6 MF cases and the JAK2V617F allele status was determined.
IL-8 alone increased the absolute numbers of JAK2V617F+ colonies, and the addition of Ladarixin reduced the numbers of JAK2V617F positive colonies stimulated by IL-8 (Tables 1-3).

[4] = tested on: MF CD34+ cells co-cultured with splenic EC; test: Proliferation of MF CD34+ cells co-cultured with LCN2 treated splenic endothelial cells; settings: LCN2 treated endothelial cells, FIG. 4B
Excerpt: FIGS. 4A and 4B illustrate that addition of a CXCR1/CXCR2 inhibitor reverses effects of IL-8 on MF CD34^+ cells proliferation and lineage differentiation. FIG. 4A illustrates that IL-8 decreased the fraction of normal CD34^+, CD41^+, and CD33^+ cells, but increased the fraction of MF CD34^+, CD41^+, and CD33^+ cells. The effects of IL-8 were eliminated by the addition of the CXCR1/CXCR2 inhibitor ladarixin (Ladx). Normal CD34/CD41/CD33: left bars. MF CD34/CD41/CD33: Right bars. FIG. 4B illustrates that splenic endothelial cells (ECs) promote the proliferation of hematopoietic CD34^+ cells. Shown is fold change in CD34^+ cells cultured alone in the absence of cytokines and that the numbers are increased when the CD34^+ cells were co-cultured with LCN2 treated endothelial cells. The effects of co-cultivation with ECs were eliminated by addition of the CXCR1/CXCR2 antagonist reparixin (RPX).
Similarly, while treatment with LCN2 enhances endothelial cell (EC)-mediated proliferation of MF cells, treatment with the CXCR1/CXCR2 inhibitor reparixin decreased MF CD34^+ proliferation when co-cultured with splenic EC (FIG. 4B).

[5] = tested on: normal splenic stromal cells; test: IL-8 and CXCL1 mRNA and protein levels in normal splenic stromal cells treated with LCN2; settings: treatment with LCN2, FIGS. 3A and 3B
Excerpt: as §1, §2

## IL-8: pro-inflammatory cytokine; CXCR1 and CXCR2 are its receptors
[1]
  percentage of MF CD34+, CD41+ and CD33+ cells: increased
MF CD34+ cells [2]; IL-8 at doses of 50 ng/ml and 100 ng/ml, FIG. 5C
  numbers of MF CFU-GM colonies: increased
MF CD34+ cells [2]; cultured with IL-8, FIG. 5A
  colony output of cultured MF CD34+ cells compared to WT CD34+ cells: enhanced colony output
MF CD34+ cells [2]; treatment with IL-8, FIG. 5D
  CFU-GM colony formation by MF samples with the highest expression of CXCR1/CXCR2: increased
Normal CD34+ cells
  hematopoietic colony formation by normal CD34+ cells: did not affect
Normal donor CD34+ cells
  percentage of normal donor CD34+, CD41+ and CD33+ cell populations: decreased
Spleen stromal cells
  effect on decrease of VEGF mRNA expression caused by silencing of IL-8: reversed this effect
MF CD34+ cells [3]; IL-8 alone, 6 MF cases
  absolute numbers of JAK2V617F+ colonies: increased
MF CD34+ cells [3]; MF1 CD34+ cells, IL-8 10 ng
  number of colonies, Heter (JAK2V617F heterozygous): 36
  number of colonies, Homo (JAK2V617F homozygous): 0
  number of colonies, WT (JAK2 wild type): 18
MF CD34+ cells [3]; MF1 CD34+ cells, IL-8 20 ng
  number of colonies, Heter (JAK2V617F heterozygous): 48
  number of colonies, Homo (JAK2V617F homozygous): 0
  number of colonies, WT (JAK2 wild type): 17
MF CD34+ cells [3]; MF1 CD34+ cells, IL-8 50 ng
  number of colonies, Heter (JAK2V617F heterozygous): 52
  number of colonies, Homo (JAK2V617F homozygous): 0
  number of colonies, WT (JAK2 wild type): 21
MF CD34+ cells [3]; MF1 CD34+ cells, IL-8 100 ng
  number of colonies, Heter (JAK2V617F heterozygous): 68
  number of colonies, Homo (JAK2V617F homozygous): 0
  number of colonies, WT (JAK2 wild type): 0
MF CD34+ cells [3]; MF2 CD34+ cells, IL-8 10 ng
  number of colonies, Heter (JAK2V617F heterozygous): 0
  number of colonies, Homo (JAK2V617F homozygous): 0
  number of colonies, WT (JAK2 wild type): 44
MF CD34+ cells [3]; MF2 CD34+ cells, IL-8 20 ng
  number of colonies, Heter (JAK2V617F heterozygous): 3
  number of colonies, Homo (JAK2V617F homozygous): 0
  number of colonies, WT (JAK2 wild type): 38
MF CD34+ cells [3]; MF2 CD34+ cells, IL-8 50 ng
  number of colonies, Heter (JAK2V617F heterozygous): 7
  number of colonies, Homo (JAK2V617F homozygous): 0
  number of colonies, WT (JAK2 wild type): 41
MF CD34+ cells [3]; MF2 CD34+ cells, IL-8 100 ng
  number of colonies, Heter (JAK2V617F heterozygous): 3
  number of colonies, Homo (JAK2V617F homozygous): 0
  number of colonies, WT (JAK2 wild type): 52
MF CD34+ cells [3]; MF3 CD34+ cells, IL-8 10 ng
  number of colonies, Heter (JAK2V617F heterozygous): 27
  number of colonies, Homo (JAK2V617F homozygous): 80
  number of colonies, WT (JAK2 wild type): 36
MF CD34+ cells [3]; MF3 CD34+ cells, IL-8 20 ng
  number of colonies, Heter (JAK2V617F heterozygous): 79
  number of colonies, Homo (JAK2V617F homozygous): 63
  number of colonies, WT (JAK2 wild type): 31
MF CD34+ cells [3]; MF3 CD34+ cells, IL-8 50 ng
  number of colonies, Heter (JAK2V617F heterozygous): 30
  number of colonies, Homo (JAK2V617F homozygous): 99
  number of colonies, WT (JAK2 wild type): 30
MF CD34+ cells [3]; MF3 CD34+ cells, IL-8 100 ng
  number of colonies, Heter (JAK2V617F heterozygous): 32
  number of colonies, Homo (JAK2V617F homozygous): 95
  number of colonies, WT (JAK2 wild type): 42
MF CD34+ cells [3]; MF4 CD34+ cells, IL-8 10 ng
  number of colonies, Heter (JAK2V617F heterozygous): 183
  number of colonies, Homo (JAK2V617F homozygous): 12
  number of colonies, Wild (JAK2 wild type): 0
MF CD34+ cells [3]; MF4 CD34+ cells, IL-8 20 ng
  number of colonies, Heter (JAK2V617F heterozygous): 171
  number of colonies, Homo (JAK2V617F homozygous): 0
  number of colonies, Wild (JAK2 wild type): 0
MF CD34+ cells [3]; MF4 CD34+ cells, IL-8 50 ng
  number of colonies, Heter (JAK2V617F heterozygous): 190
  number of colonies, Homo (JAK2V617F homozygous): 0
  number of colonies, Wild (JAK2 wild type): 0
MF CD34+ cells [3]; MF4 CD34+ cells, IL-8 100 ng
  number of colonies, Heter (JAK2V617F heterozygous): 174
  number of colonies, Homo (JAK2V617F homozygous): 12
  number of colonies, Wild (JAK2 wild type): 12
MF CD34+ cells [3]; MF5 CD34+ cells, IL-8 10 ng
  number of colonies, Heter (JAK2V617F heterozygous): 0
  number of colonies, Homo (JAK2V617F homozygous): 0
  number of colonies, Wild (JAK2 wild type): 124
MF CD34+ cells [3]; MF5 CD34+ cells, IL-8 20 ng
  number of colonies, Heter (JAK2V617F heterozygous): 0
  number of colonies, Homo (JAK2V617F homozygous): 0
  number of colonies, Wild (JAK2 wild type): 142
MF CD34+ cells [3]; MF5 CD34+ cells, IL-8 50 ng
  number of colonies, Heter (JAK2V617F heterozygous): 0
  number of colonies, Homo (JAK2V617F homozygous): 0
  number of colonies, Wild (JAK2 wild type): 115
MF CD34+ cells [3]; MF5 CD34+ cells, IL-8 100 ng
  number of colonies, Heter (JAK2V617F heterozygous): 0
  number of colonies, Homo (JAK2V617F homozygous): 0
  number of colonies, Wild (JAK2 wild type): 115
MF CD34+ cells [3]; MF6 CD34+ cells, IL-8 10 ng
  number of colonies, Heter (JAK2V617F heterozygous): 0
  number of colonies, Homo (JAK2V617F homozygous): 0
  number of colonies, Wild (JAK2 wild type): 115
MF CD34+ cells [3]; MF6 CD34+ cells, IL-8 20 ng
  number of colonies, Heter (JAK2V617F heterozygous): 0
  number of colonies, Homo (JAK2V617F homozygous): 0
  number of colonies, Wild (JAK2 wild type): 131
MF CD34+ cells [3]; MF6 CD34+ cells, IL-8 50 ng
  number of colonies, Heter (JAK2V617F heterozygous): 8
  number of colonies, Homo (JAK2V617F homozygous): 0
  number of colonies, Wild (JAK2 wild type): 125
MF CD34+ cells [3]; MF6 CD34+ cells, IL-8 100 ng
  number of colonies, Heter (JAK2V617F heterozygous): 12
  number of colonies, Homo (JAK2V617F homozygous): 0
  number of colonies, Wild (JAK2 wild type): 87

B1: LCN2: Lipocalin2 (LCN2) is a cytokine produced by MF marrow myeloid cells (protein, UniProt P80188 21-198, looked up)
Neutrophil …: QDSTSDLIPAPPLSKVPLQQNFQDNQFQGKWYVVGLAGNAILREDKDPQKMYATIYELKEDKSYNVTSVLFRKKKCDYWIRTFVPGCQPGEFTLGNIKSYPGLTSYLVRVVSTNYNQHAMVFFKKVSQNREYFKITLYGRTKELTSELKENFIRFSKSLGLPENHIVFPVPIDQCIDG
[4]
  endothelial cell (EC)-mediated proliferation of MF cells: enhances
[5]
  CXCL1 mRNA and protein levels: significant increase
  IL-8 mRNA and protein levels: significant increase
